Laboratory results published in US20090209577A1, “Novel Triazolopyridine Compounds” (PFIZER INC., priority 2004, published 2009).
Counter-ions that a name gives are not always drawn.

Target: T1, human p38 kinase alpha (Homo sapiens, UniProt Q16539)
T1 construct: The coding region of the human p38a cDNA was obtained by PCR-amplification from RNA isolated from the human monocyte cell line THP.1; made in house; host or cells: E. coli DH10B
Assay: p38 kinase in vitro assay (PHAS-I / 32P-ATP format or EGFRP / 33P-ATP format)
Format: biochemical
Settings: activated human p38 kinase alpha, 50 μM unlabeled ATP; two assay formats, table does not say which
Method: The ability of compounds to inhibit human p38 kinase alpha was evaluated using two in vitro assay methods. In the first method, activated human p38 kinase alpha phosphorylates a biotinylated substrate, PHAS-I (phosphorylated heat and acid stable protein-insulin inducible), in the presence of gamma ^32P-ATP (^32P-ATP). PHAS-I was biotinylated prior to the assay and provides a means of capturing the substrate, which is phosphorylated during the assay. p38 Kinase was activated by MKK6. Compounds were tested in 10 fold serial dilutions over the range of 100 μM to 0.001 μM using 1% DMSO. Each concentration of inhibitor was tested in triplicate.
All reactions were carried out in 96 well polypropylene plates. Each reaction well contained 25 mM HEPES pH 7.5, 10 mM magnesium acetate and 50 μM unlabeled ATP. Activation of p38 was required to achieve sufficient signal in the assay. Biotinylated PHAS-1 was used at 1-2 μg per 50 μl reaction volume, with a final concentration of 1.5 μM. Activated human p38 kinase alpha was used at 1 μg per 50 μl reaction volume representing a final concentration of 0.3 μM. Gamma ^32P-ATP was used to follow the phosphorylation of PHAS-1. ^32P-ATP has a specific activity of 3000 Ci/mmol and was used at 1.2 μCi per 50 μl reaction volume. The reaction proceeded either for one hour or overnight at 30° C.
Following incubation, 20 μl of reaction mixture was transferred to a high capacity streptavidin coated filter plate (SAM-streptavidin-matrix, Promega) prewetted with phosphate buffered saline. The transferred reaction mix was allowed to contact the streptavidin membrane of the Promega plate for 1-2 minutes. Following capture of biotinylated PHAS-1 with ^32P incorporated, each well was washed to remove unincorporated ^32P-ATP three times with 2M NaCl, three washes of 2M NaCl with 1% phosphoric, three washes of distilled water and finally a single wash of 95% ethanol. Filter plates were air-dried and 20 μl of scintillant was added. The plates were sealed and counted.
A second assay format was also employed that is based on p38 kinase alpha induced phosphorylation of EGFRP (epidermal growth factor receptor peptide, a 21 mer) in the presence ^33P-ATP. Compounds were tested in 10 fold serial dilutions over the range of 100 μM to 0.001 μM in 1% DMSO. Each concentration of inhibitor was tested in triplicate. Compounds were evaluated in 50 μl reaction volumes in the presence of 25 mM Hepes pH 7.5, 10 mM magnesium acetate, 4% glycerol, 0.4% bovine serum albumin, 0.4 mM DTT, 50 μM unlabeled ATP, 25 μg EGFRP (200 μM), and 0.05 μCi ^33P-ATP. Reactions were initiated by addition of 0.09 μg of activated, purified human GST-p38 kinase alpha. Activation was carried out using GST-MKK6 (5:1, p38:MKK6) for one hour at 30° C. in the presence of 50 μM ATP. Following incubation for 60 minutes at room temperature, the reaction was stopped by addition of 150 μl of AG 1×8 resin in 900 mM sodium formate buffer, pH 3.0 (1 volume resin to 2 volumes buffer). The mixture was mixed three times with pipetting and the resin was allowed to settle. A total of 50 μl of clarified solution head volume was transferred from the reaction wells to Microlite-2 plates. 150 μl of Microscint 40 was then added to each well of the Microlite plate, and the plate was sealed, mixed, and counted.
The above protocol assays were used to determine the IC50 values for compounds in Examples 1-71 above.

T1 sequence (Q16539 whole entry): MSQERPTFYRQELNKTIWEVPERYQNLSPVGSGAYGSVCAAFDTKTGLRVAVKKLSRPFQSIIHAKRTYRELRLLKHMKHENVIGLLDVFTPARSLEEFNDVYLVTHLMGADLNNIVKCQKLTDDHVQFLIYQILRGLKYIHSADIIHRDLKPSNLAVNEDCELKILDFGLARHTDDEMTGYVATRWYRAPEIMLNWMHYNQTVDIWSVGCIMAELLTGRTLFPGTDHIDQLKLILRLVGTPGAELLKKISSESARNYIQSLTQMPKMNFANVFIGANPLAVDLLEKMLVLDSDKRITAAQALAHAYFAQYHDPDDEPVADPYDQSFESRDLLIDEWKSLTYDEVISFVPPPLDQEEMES

Structure (SMILES)	IC50 [nM]
COC(=O)c1ccc(C)c(-c2nnc3ccc(/C=C/c4ccc(F)cc4F)cn23)c1 [Example 16, methyl 3-{6-[(E)-2-(2,4-difluorophenyl)vinyl][1,2,4]triazolo[4,3-a]pyridin-3-yl}-4-methylbenzoate]	17.3
COC(=O)c1ccc(C)c(-c2nnc3ccc(CCc4ccc(F)cc4F)cn23)c1 [Example 17, methyl 3-{6-[2-(2,4-difluorophenyl)ethyl][1,2,4]triazolo[4,3-a]pyridin-3-yl}-4-methylbenzoate]	17.1
O=C(NCCO)c1ccc(-c2nnc3ccc(Sc4ccc(F)cc4F)cn23)cc1 [Example 25, 4-{6-[(2,4-difluorophenyl)thio][1,2,4]triazolo[4,3-a]pyridin-3-yl}-N-(2-hydroxyethyl)benzamide]	93.6
NC(=O)c1cccc(-c2nnc3ccc(Sc4ccc(F)cc4F)cn23)c1 [Example 26, 3-{6-[(2,4-difluorophenyl)thio][1,2,4]triazolo[4,3-a]pyridin-3-yl}benzamide]	241
COC(=O)c1cccc(-c2nnc3ccc(C(=O)c4ccc(F)cc4F)cn23)c1 [Example 29, methyl 3-[6-(2,4-difluorobenzoyl)[1,2,4]triazolo[4,3-a]pyridin-3-yl]benzoate]	14000
CC(C)(CC(O)CO)c1nnc2ccc(Sc3ccc(F)cc3F)cn12 (centres unmarked) [Example 33, 4-{6-[(2,4-difluorophenyl)thio][1,2,4]triazolo[4,3,a]pyridin-3-yl}-4-methylpentane-1,2-diol hydrochloride]	1740
CC(C)c1nnc2cc(Cl)c(Sc3ccc(F)cc3F)c(Cl)n12 [Example 34, 5,7-dichloro-6-[(2,4-difluorophenyl)thio]-3-isopropyl[1,2,4]triazolo[4,3-a]pyridine]	3380
CC(C)c1nnc2cc(Cl)c(Sc3ccc(F)cc3F)cn12 [Example 35, 7-chloro-6-[(2,4-difluorophenyl)thio]-3-isopropyl[1,2,4]triazolo[4,3-a]pyridine hydrochloride]	889
CC(C)c1nnc2ccc(Sc3ccc(F)cc3F)c(Cl)n12 [Example 36, 5-chloro-6-[(2,4-difluorophenyl)thio]-3-isopropyl[1,2,4]triazolo[4,3-a]pyridine]	12.3
CCCCSc1ccc2nnc(C(C)C)n2c1 [Example 37, 6-(butylthio)-3-isopropyl[1,2,4]triazolo[4,3-a]pyridine hydrochloride]	> 100000
Cc1c(Sc2ccc(F)cc2F)ccc2nnc(C(C)C)n12 [Example 38, 6-[(2,4-difluorophenyl)thio]-3-isopropyl-5-methyl[1,2,4]triazolo[4,3-a]pyridine]	101
CC(C)c1nnc2cc(Cl)c(Sc3ccc(F)cc3F)c(Br)n12 [Example 39, 5-bromo-7-chloro-6-[(2,4-difluorophenyl)thio]-3-isopropyl[1,2,4]triazolo[4,3-a]pyridine]	6080
Cc1ccc(C(N)=O)cc1-c1nnc2ccc(Sc3ccc(F)cc3F)cn12 [Example 41, 3-{6-[(2,4-difluorophenyl)thio][1,2,4]triazolo[4,3-a]pyridin-3-yl}-4-methylbenzamide]	60.8
O=C(CO)N1CCC(c2nnc3ccc(Sc4ccc(F)cc4F)cn23)CC1 [Example 44, 2-(4-{6-[(2,4-difluorophenyl)thio][1,2,4]triazolo[4,3-a]pyridin-3-yl}piperidin-1-yl)-2-oxoethanol hydrochloride]	212
Cc1cc(CNCCO)ccc1-c1nnc2ccc(Sc3ccc(F)cc3F)cn12 [Example 45, 2-[(4-{6-[(2,4-difluorophenyl)thio][1,2,4]triazolo[4,3-a]pyridin-3-yl}-3-methylbenzyl)amino]ethanol dihydrochloride]	33.3
Fc1ccc(Sc2ccc3nnc(-c4c(F)cccc4F)n3c2)c(F)c1 [Example 47, 3-(2,6-difluorophenyl)-6-[(2,4-difluorophenyl)thio][1,2,4]triazolo[4,3-a]pyridine]	7.2
CNC(=O)c1ccc(C)c(-c2nnc3ccc(Sc4ccc(F)cc4F)cn23)c1 [Example 49, 3-{6-[(2,4-difluorophenyl)thio][1,2,4]triazolo[4,3-a]pyridin-3-yl}-N,4-dimethylbenzamide]	39.9
CC(C)c1nnc2ccc(Sc3ccc(Br)cc3C(F)(F)F)cn12 [Example 51, 6-{[4-bromo-2-(trifluoromethyl)phenyl]thio}-3-isopropyl[1,2,4]triazolo[4,3-a]pyridine hydrochloride]	> 100000
CC(C)c1nnc2ccc(Sc3ccc(F)cc3C(F)(F)F)cn12 [Example 53, 6-{[4-fluoro-2-(trifluoromethyl)phenyl]thio}-3-isopropyl[1,2,4]triazolo[4,3-a]pyridine hydrochloride]	50500
CC(C)c1nnc2ccc(Sc3c(Cl)cc(Cl)cc3Cl)cn12 [Example 55, 3-isopropyl-6-[(2,4,6-trichlorophenyl)thio][1,2,4]triazolo[4,3-a]pyridine hydrochloride]	8240

Now from value to molecule:

IC50 [nM]	Structure (SMILES)
2710	Cc1ccc(C(=O)O)cc1-c1nnc2ccc(CCc3ccc(F)cc3F)cn12 [Example 21, 3-{6-[2-(2,4-difluorophenyl)ethyl][1,2,4]triazolo[4,3-a]pyridin-3-yl}-4-methylbenzoic acid]
201	NC(=O)c1ccc(-c2nnc3ccc(Sc4ccc(F)cc4F)cn23)cc1 [Example 23, 4-{6-[(2,4-difluorophenyl)thio][1,2,4]triazolo[4,3-a]pyridin-3-yl}benzamide]
293	CNC(=O)c1ccc(-c2nnc3ccc(Sc4ccc(F)cc4F)cn23)cc1 [Example 24, 4-{6-[(2,4-difluorophenyl)thio][1,2,4]triazolo[4,3-a]pyridin-3-yl}-N-methylbenzamide]
3020	NC(=O)c1ccc(-c2nnc3ccc(Cc4ccc(F)cc4F)cn23)cc1 [Example 27, 4-[6-(2,4-difluorobenzyl)[1,2,4]triazolo[4,3-a]pyridin-3-yl]benzamide]
2980	NC(=O)c1cccc(-c2nnc3ccc(Cc4ccc(F)cc4F)cn23)c1 [Example 28, 3-[6-(2,4-difluorobenzyl)[1,2,4]triazolo[4,3-a]pyridin-3-yl]benzamide]
> 100000	NC(=O)c1cccc(-c2nnc3ccc(C(=O)c4ccc(F)cc4F)cn23)c1 [Example 30, 3-[6-(2,4-difluorobenzoyl)[1,2,4]triazolo[4,3-a]pyridin-3-yl]benzamide]
13300	Fc1cccc(F)c1-c1nnc2ccc(Br)cn12 [Example 40, 6-bromo-3-(2,6-difluorophenyl)[1,2,4]triazolo[4,3-a]pyridine]
46.5	Cc1ccc(C(=O)NCC(N)=O)cc1-c1nnc2ccc(Sc3ccc(F)cc3F)cn12 [Example 42, N-(3-{6-[(2,4-difluorophenyl)thio][1,2,4]triazolo[4,3-a]pyridin-3-yl}-4-methylbenzoyl)glycinamide]
20.5	Cc1ccc(C(=O)NCCO)cc1-c1nnc2ccc(Sc3ccc(F)cc3F)cn12 [Example 43, 3-{6-[(2,4-difluorophenyl)thio][1,2,4]triazolo[4,3-a]pyridin-3-yl}-N-(2-hydroxyethyl)-4-methylbenzamide]
24.9	CC1(c2nnc3ccc(Sc4ccc(F)cc4F)cn23)CC1 [Example 46, 6-[(2,4-difluorophenyl)thio]-3-(1-methylcyclopropyl)[1,2,4]triazolo[4,3-a]pyridine hydrochloride]
4.8	CC(C)(C)c1nnc2ccc(Sc3ccc(F)cc3F)cn12 [Example 48, 3-tert-butyl-6-[(2,4-difluorophenyl)thio][1,2,4]triazolo[4,3-a]pyridine]
> 100000	C=Cc1ccc2nnc(C(C)C)n2c1 [Example 56, 3-isopropyl-6-vinyl[1,2,4]triazolo[4,3-a]pyridine]
